Measured values taken from patent US20240383840A1, “AMINE-N-OXIDE COMPOUNDS” (Karl Franzens Universität Graz, priority 2021, published 2024).

test: Critical micelle concentration (CMC) by Wilhelmy plate method, K100C Force Tensiometer; format: physicochemical; settings: 25° C., pH 3
Protocol: As a parameter for the surfactant properties of the novel amine-N-oxide compounds, as usual, the critical micelle concentration (CMC), i.e. the concentration of the protonated or cationic form of the surfactants at which micelles can form was used and was determined using a K100C Force Tensiometer from Krüss Scientific according to the Wilhelmy plate method at 25° C. and pH 3. For comparison, dodecyldimethylamine N-oxide (“C1”) was measured under the same conditions.

CMC value [mM] | SMILES
4.1 | CCCCCCCCOc1c(C[N+](C)(C)[O-])cc(CC)cc1OC [Compound 1, N,N-dimethyl-1-(5-ethyl-3-methoxy-2-octyloxyphenyl)methanamine N-oxide]

same assay, conditions: critical micelle concentration of the protonated or cationic form; Wilhelmy plate method, 25° C., pH 3

CMC [mmol/L] | SMILES
1.3 | CCCCCCCCCCCCCCCCCCOc1c(C[N+](C)(C)[O-])cc(CC)cc1OC [Compound 6, N,N-dimethyl-1-(5-ethyl-3-methoxy-2-octadecyloxyphenyl)methanamine N-oxide]
36 | CCCCCCCCCCCCOc1c(C[N+]2([O-])CCCC2)cc(CC)cc1OC [Compound 7, 1-(2-dodecyloxy-5-ethyl-3-methoxybenzyl)pyrrolidine-1-oxide]
130 | CCCCCCCCCCCCOc1c(C[N+]2([O-])CCCCC2)cc(CC)cc1OC [Compound 8, 1-(2-dodecyloxy-5-ethyl-3-methoxybenzyl)piperidine-1-oxide]
190 | CCCCCCCCCCCCOc1c(C[N+](C)(C)[O-])cc(CC)cc1C[N+](C)(C)[O-] [Compound 13, 1,1′-(2-dodecyloxy-5-ethyl-1,3-phenylene)-bis(N,N-dimethylmethanamine N-oxide)]
75 | CCCCCCCCCCCCCCCCOc1c(C[N+](C)(C)[O-])cc(CC)cc1C[N+](C)(C)[O-] [Compound 14, 1,1′-(5-ethyl-2-hexadecyloxy-1,3-phenylene)-bis(N,N-dimethylmethanamine N-oxide)]
29 | CCCCCCCCCCCCCCCCCCOc1c(C[N+](C)(C)[O-])cc(CC)cc1C[N+](C)(C)[O-] [Compound 15, 1,1′-(5-ethyl-2-octadecyloxy-1,3-phenylene)-bis(N,N-dimethylmethanamine N-oxide)]

The remaining lines, values behind:

SMILES | CMC [mmol/L]
CCCCCCCCOc1c(C[N+](C)(C)[O-])cc(CC)cc1OC [Compound 1, N,N-dimethyl-1-(5-ethyl-3-methoxy-2-octyloxyphenyl)methanamine N-oxide] | 4.1
CCCCCCCCCCOc1c(C[N+](C)(C)[O-])cc(CC)cc1OC [Compound 2, N,N-dimethyl-1-(2-decyloxy-5-ethyl-3-methoxyphenyl)methanamine N-oxide] | 570
CCCCCCCCCCCCOc1c(C[N+](C)(C)[O-])cc(CC)cc1OC [Compound 3, N,N-dimethyl-1-(2-dodecyloxy-5-ethyl-3-methoxyphenyl)methanamine N-oxide] | 89
CCCCCCCCCCCCCCOc1c(C[N+](C)(C)[O-])cc(CC)cc1OC [Compound 4, N,N-dimethyl-1-(5-ethyl-3-methoxy-2-tetradecyloxyphenyl)methanamine N-oxide] | 5.2
CCCCCCCCCCCCCCCCOc1c(C[N+](C)(C)[O-])cc(CC)cc1OC [Compound 5, N,N-dimethyl-1-(5-ethyl-2-hexadecyloxy-3-methoxyphenyl)methanamine N-oxide] | 4.0
CCCCCCCCCCCC[N+](C)(C)[O-] [Compound C1, dodecyldimethylamine N-oxide, reference compound] | 4200

same assay, conditions: second value of the cell, for (3)*; asterisk not explained; otherwise 25° C., pH 3

CMC, value marked (3)* [mmol/L] | SMILES
19 | CCCCCCCCCCCCOc1c(C[N+](C)(C)[O-])cc(CC)cc1OC [Compound 3, N,N-dimethyl-1-(2-dodecyloxy-5-ethyl-3-methoxyphenyl)methanamine N-oxide]
